Data on 14 compounds can be found in ChEMBL document CHEMBL1151499, “Synthesis of a piperidinomethylthiophene derivative as H2-antagonist with inhibitory activity against Helicobacter pylori” (Bioorg Med Chem Lett, 1996).

Values after ≈ are worked out from the molar mass of the structure shown. A value given as a limit tells only on which side of the number the result lay.

Assay type in all cases: functional
One assay has as its target Histamine H2 receptor (Cavia porcellus, UniProt P47747). In words: Histamine H2 receptor antagonistic activity.
The test system of the next assay is Helicobacter pylori. In words: Compound was tested for inhibitory activity against Helicobacter pylori No. 9470.
Assay [1] concerns the target Histamine H2 receptor (Cavia porcellus) (UniProt P47747). Briefly: Compound was tested for Histamine H2 receptor antagonistic activity at 10 ug/ml.

Histamine H2 receptor, sequence (P47747 whole entry): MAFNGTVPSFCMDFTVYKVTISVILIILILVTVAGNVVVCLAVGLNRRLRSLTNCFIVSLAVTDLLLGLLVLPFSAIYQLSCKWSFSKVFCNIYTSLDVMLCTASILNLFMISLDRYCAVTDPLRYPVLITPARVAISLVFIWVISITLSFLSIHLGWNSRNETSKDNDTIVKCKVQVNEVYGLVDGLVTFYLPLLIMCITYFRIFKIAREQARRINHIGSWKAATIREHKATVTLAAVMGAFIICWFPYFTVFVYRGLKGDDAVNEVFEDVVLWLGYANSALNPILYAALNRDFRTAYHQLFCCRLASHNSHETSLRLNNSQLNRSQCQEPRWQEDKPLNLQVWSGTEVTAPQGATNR
Histamine H2 receptor (Cavia porcellus), sequence (P47747 whole entry): as above

In the case of `C=CCNc1c(NC/C=C\COc2csc(CN3CCCCC3)c2)c(=O)c1=O`, the midpoint of inhibition against Histamine H2 receptor, the IC50, lay at 1270 nM. Further, in the assay with Helicobacter pylori, the MIC (in general, the smallest concentration in the dilution series that meets the test's criterion for growth inhibition) was more than 100 µg/mL.
For the compound `N#CCCNc1c(NC/C=C\COc2csc(CN3CCCCC3)c2)c(=O)c1=O`, on Histamine H2 receptor, the IC50 (usually the concentration that gives 50% inhibition) was 748 nM. Further, in the assay with Helicobacter pylori, the MIC stood at 25 µg/mL (≈ 60.3 µM).
`COCC/N=c1\c(O)c(O)\c1=N/C/C=C\COc1csc(CN2CCCCC2)c1`: half-maximal inhibition against Histamine H2 receptor (IC50) was put at 1140 nM. Further, in the assay on Helicobacter pylori, the MIC was more than 100 µg/mL.
At Histamine H2 receptor, `O=c1c(NC/C=C\COc2csc(CN3CCCCC3)c2)c(NCCF)c1=O` showed an IC50 of 1060 nM. The same compound registered an MIC against Helicobacter pylori of 1.56 µg/mL (≈ 3.83 µM).
Take `O=c1c(NC/C=C\COc2csc(CN3CCCCC3)c2)c(NCC(F)(F)C(F)(F)F)c1=O`: in assay [1], the inhibition (in general, the share of the control response that was lost under treatment) worked out at 43%. In the assay on Helicobacter pylori, this compound came in with a minimal inhibitory concentration (MIC) of 25 µg/mL (≈ 50.7 µM).
The matching figures for `O=c1c(NC/C=C\COc2csc(CN3CCCCC3)c2)c(NCC(F)(F)C(F)(F)C(F)(F)F)c1=O`: 39% and 6.25 µg/mL (≈ 11.5 µM).
`CC(C)/N=c1\c(O)c(O)\c1=N/C/C=C\COc1csc(CN2CCCCC2)c1` had an IC50 against Histamine H2 receptor of 1930 nM. This compound also had an MIC in the assay with Helicobacter pylori of 12.5 µg/mL (≈ 31 µM).
For the compound `Nc1c(NC/C=C\COc2csc(CN3CCCCC3)c2)c(=O)c1=O`, on Histamine H2 receptor, 443 nM corresponded to half-maximal inhibition (IC50). The same compound came in with an MIC in the assay on Helicobacter pylori of 100 µg/mL (≈ 277 µM).
`CN/C(=N\CCSCc1nc[nH]c1C)NC#N` [CIMETIDINE] had an MIC against Helicobacter pylori of more than 100 µg/mL.
Turning to `C/N=c1\c(O)c(O)\c1=N/C/C=C\COc1csc(CN2CCCCC2)c1`, at Histamine H2 receptor, the IC50 was 1840 nM. The MIC against Helicobacter pylori came to 12.5 µg/mL (≈ 33.3 µM).
For `CN(C)CC/N=c1\c(O)c(O)\c1=N/C/C=C\COc1csc(CN2CCCCC2)c1`, at Histamine H2 receptor, the half-inhibitory concentration (IC50) is 809 nM. Also, the MIC in the assay with Helicobacter pylori is more than 100 µg/mL.
The compound `CN/C(=C/[N+](=O)[O-])NCCSCc1ccc(CN(C)C)o1` [RANITIDINE] had a concentration for half-maximal inhibition (IC50) against Histamine H2 receptor of 3340 nM. The same compound came in with an MIC in the assay with Helicobacter pylori of more than 100 µg/mL.
On Histamine H2 receptor, `CC(=O)OCC(=O)NCCCOc1cccc(CN2CCCCC2)c1` [ROXATIDINE ACETATE] showed an IC50 of 4100 nM. The compound also displayed an MIC against Helicobacter pylori of more than 100 µg/mL.
In the case of `CN(C)Cc1cc(OC/C=C\C/N=c2\c(O)c(O)c2=N)cs1`, the IC50 against Histamine H2 receptor is 685 nM. For the same compound, inhibition of growth against Helicobacter pylori (MIC) required 100 µg/mL (≈ 311 µM).
